Assay results taken from publication PMC11758266, “Lipid-Modulated, Graduated Inhibition of N-Glycosylation Pathway Priming Suggests Wide Tolerance of ER Proteostasis to Stress” (ACS Central Science, 2024).

Legend:
[1] = tested on: ATF4; assay: HEK-ATF4 high-content immunofluorescence imaging assay (ER stress); assay type: cell-based, human; settings: for ER stress response in the phenotypic assay (in words): HEK293 cells, 6 h, nuclear ATF4 as marker
Description: Here, the nuclear localization of the transcription factor ATF4 (which leads to subsequent expression of CHOP and cell death) was used as a phenotypic marker of ER stress (Figure 3A). Use of multi(384)-well plate format allowed wild-type HEK cells to be treated with analogues over a titrating concentration range of 0.5 nM to […] for 6 h in a quantitative manner (Figure 3C). After fixation with paraformaldehyde, high-content cellular fluorescence microscopy imaging was used to both determine the site and quantify the location of ATF4[32] (Figure 3B,C). Thus, immunofluorescent staining of the cells exploited a primary rabbit anti-ATF4 (D4B8) antibody followed by a solution containing a secondary Alexa Fluor 488-labeled goat anti-rabbit IgG along with Hoechst 33342 nuclei stain. In this way, confocal fluorescence microscopy at excitation wavelengths of 405 and 488 nm produced, as a direct primary readout, the intensity of ATF4 located in the nucleus as well as the ratio of ATF4 located between the nucleus (colocalized with Hoechst) and cytoplasm (see Figure 3B,C for representative images and the Supporting Information for channel-by-channel images). Concurrent readout of the number of stained nuclei (Hoechst nuclei stain) in live cells was also used as an internal cytotoxicity measure. This high-content method allowed detailed quantitative cellular dose responses to be determined with precision (Figure 3D). […] Consistent with ATF4 as a driver of apoptosis, this also drove cell death at higher concentrations (EC50 ∼ 10 μM) similar to those determined previously.[33] This therefore identified a clear dose–response window of more than 2 orders of magnitude over such key downstream events.
Figure 3 High-content phenotypic screen for putative ER stress inducers. (A) Schematic of the screening process. 12,000 HEK293 WT cells per well were plated into a 384-well plate and incubated at 37 °C for 24 h. Compounds were serially diluted and added to the plate and incubated for 6 h at 37 °C, at which point the cells were fixed with 4% PFA in PBS. The plates were then submitted to indirect ATF4 immunofluorescence, in which the plate was incubated with a primary anti-ATF4 (D4B8) antibody, followed by Alexa Fluor 488-labeled goat anti-rabbit secondary antibody and Hoechst 33342 dye. Plates were imaged using an OPERA-Phenix high-content imaging platform with fluorescence excitation at 405 and 488 nm. The images were analyzed, and the nuclear intensity of ATF4 for each cell was quantitatively determined (gray filled circles, left-hand axis in (D)) as well as the count of live cells (black squares, right-hand axis in (D)). Created in BioRender. https://BioRender.com/z32w873 (B) Representative section of imaging (red = nuclei, green = ATF4) for a given cellular population at a single dose (here exposed to tunicamycin at 41.2 nM). (C) Representative series panels of dose–response images after exposure to three different Tun-XE,YG analogues and DMSO control. (D) Corresponding resulting quantification of the high-throughput microscopy assay displaying the live cell count (black, right axis) and the nuclear intensity of ATF4 (gray, left axis) of tunicamycin and two lipid altered analogues, one with a large lipid at the gating position (Tun-9E,9G) and other with a short lipid at this position (Tun-8E,2G). See the Supporting Information for full details.
Supplementary Phenotypic Screening Methods
Tunicamycin analogues were tested in the HEK-ATF4 High Content Imaging assay to assess their ER stress generating ability. Wild-type HEK293 cells were plated in 384-well imaging assay plates at a density of 12,000 cells per well in growth medium (containing DMEM/F12, 10% FBS, 2 mM L-Glutamine, 100 U/mL Penicillin - 100µg/mL Streptomycin) and incubated at 37°C, 5% CO2. 24-hrs later, the medium was changed to 50 µl assay medium per well (DMEM/F12, 0.3% FBS, 2mM L-Glutamine, 100 U/mL Penicillin – 100 µg/mL […]
Streptomycin). […]

[2] = tested on: HEK293 cells; assay: HEK-CellCount readout (stained nuclei of live cells, internal cytotoxicity measure); assay type: cell-based, human
Description: Here, the nuclear localization of the transcription factor ATF4 (which leads to subsequent expression of CHOP and cell death) was used as a phenotypic marker of ER stress (Figure 3A). Use of multi(384)-well plate format allowed wild-type HEK cells to be treated with analogues over a titrating concentration range of 0.5 nM to […] for 6 h in a quantitative manner (Figure 3C). After fixation with paraformaldehyde, high-content cellular fluorescence microscopy imaging was used to both determine the site and quantify the location of ATF4[32] (Figure 3B,C). […] In this way, confocal fluorescence microscopy at excitation wavelengths of 405 and 488 nm produced, as a direct primary readout, the intensity of ATF4 located in the nucleus as well as the ratio of ATF4 located between the nucleus (colocalized with Hoechst) and cytoplasm (see Figure 3B,C for representative images and the Supporting Information for channel-by-channel images). Concurrent readout of the number of stained nuclei (Hoechst nuclei stain) in live cells was also used as an internal cytotoxicity measure. This high-content method allowed detailed quantitative cellular dose responses to be determined with precision (Figure 3D). […]
Figure 3 High-content phenotypic screen for putative ER stress inducers. […] Plates were imaged using an OPERA-Phenix high-content imaging platform with fluorescence excitation at 405 and 488 nm. […]

[3] = target: T1, DPAGT1 (Homo sapiens, UniProt Q9H3H5); assay: Heat-induced denaturation assay of DPAGT1 with bound ligand; assay type: binding
T1 sequence (Q9H3H5 1-408): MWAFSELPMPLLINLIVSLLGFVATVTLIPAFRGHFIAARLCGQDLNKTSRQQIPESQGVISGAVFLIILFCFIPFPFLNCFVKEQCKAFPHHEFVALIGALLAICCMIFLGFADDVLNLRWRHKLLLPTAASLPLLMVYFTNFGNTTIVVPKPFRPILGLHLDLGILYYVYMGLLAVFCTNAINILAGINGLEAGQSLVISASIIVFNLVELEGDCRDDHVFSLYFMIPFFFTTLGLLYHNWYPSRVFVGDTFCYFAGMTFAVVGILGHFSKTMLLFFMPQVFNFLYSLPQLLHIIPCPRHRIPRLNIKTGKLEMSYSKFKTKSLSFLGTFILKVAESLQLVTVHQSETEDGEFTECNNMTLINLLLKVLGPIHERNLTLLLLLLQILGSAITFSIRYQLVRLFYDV
Source text: The structure of DPAGT1 in complex with the archetypal scaffold natural product tunicamycin[21] […] Trp122 moves so as to use its indole moiety to hydrophobically provide a binding “cap” or “lid” over the proximal portion of the 10′-N lipid chain.

Row | Compound | ER stress response in the phenotypic assay (in words) [1] | other results
1 | CCCCCCCCC(=O)N[C@H]1[C@H](O[C@H]2O[C@H](CO)[C@@H](O)[C@H](O)[C@H]2NC(=O)CC(C)C)O[C@H](C[C@@H](O)[C@H]2O[C@@H](n3ccc(=O)[nH]c3=O)[C@H](O)[C@@H]2O)[C@H](O)[C@@H]1O [Tun-9E,i5G] | did not induce ER stress | 
2 | tunicamycin [reference compound] | clear ER stress response | EC50 ([1]; wild-type HEK293 cells, 6 h treatment, read-out: EC50, increase in ATF4 in the nucleus): 0.044 ± 0.0032 µM; cell death (in words) [2]: causing cell death; EC50 ([2]; 6 h, live cell nuclei count, read-out: EC50, cell death): ~10 µM; Tm,1/2 of DPAGT1 bound to ligand ([3]; heat-induced denaturation, DPAGT1 alone 51.7 ± 0.2 °C): 83.0 ± 0.4 °C; ΔTm,1/2 of DPAGT1 ([3]; versus DPAGT1 alone): 31.3 °C
3 | CCCCCCCC(=O)N[C@H]1[C@H](O[C@H]2O[C@H](CO)[C@@H](O)[C@H](O)[C@H]2NC(C)=O)O[C@H](C[C@@H](O)[C@H]2O[C@@H](n3ccc(=O)[nH]c3=O)[C@H](O)[C@@H]2O)[C@H](O)[C@@H]1O [Tun-8E,2G] | did not induce ER stress | 
4 | CCCCCCCCC(=O)N[C@H]1[C@@H](O[C@@H]2O[C@H](C[C@@H](O)[C@H]3O[C@@H](n4ccc(=O)[nH]c4=O)[C@H](O)[C@@H]3O)[C@H](O)[C@H](O)[C@H]2NC(=O)CCC)O[C@H](CO)[C@@H](O)[C@@H]1O [Tun-4E,9G] | did not induce any ER stress response | 
5 | CCCCCCCCC(=O)N[C@H]1[C@H](O[C@H]2O[C@H](CO)[C@@H](O)[C@H](O)[C@H]2NC(=O)CCCCCCCC)O[C@H](C[C@@H](O)[C@H]2O[C@@H](n3ccc(=O)[nH]c3=O)[C@H](O)[C@@H]2O)[C@H](O)[C@@H]1O [Tun-9E,9G] | did not induce any ER stress response | 
